Values of other authors, collected in paper PMC8342319, “Predicting blood-to-plasma concentration ratios of drugs from chemical structures and volumes of distribution in humans” (Molecular Diversity, 2021).
Like-named read-outs stand apart in the source and are kept apart here.

What was measured:
[1] = human, cited from earlier work; for Rb_Human: blood-to-plasma concentration ratio, median if multiple values reported, Reference of Table S1
[2] = system: plasma protein; conditions: cited from earlier work; for fp_Human (free fraction in plasma): human, collected value, median if multiple values were reported, ref: Table S1
[3] = human, intravenous, cited from earlier work
[4] = human, cited from earlier work
[5] = median if multiple values were reported, ref numbers in Table S1
[6] = intravenous, median if multiple values were reported, ref numbers in Table S1
[7] = free fraction in human plasma, median if multiple values reported, Reference of Table S1
[8] = median if multiple values reported, Reference of Table S1
[9] = intravenous, median if multiple values reported, Reference of Table S1

Row | SMILES | Rb_Human (blood-to-plasma concentration ratio) [1, 5] | fp_Human (free fraction in plasma) [2] | in vivo CL_(L/hr/kg)_Human [3, 5] | in vivo Vd_(L/kg)_Human [4, 6] | Rb_Human (blood-to-plasma concentration ratio) ([1]; plasma) | in vivo Vd_(L/kg)_Human ([4]; in vivo, iv) | Rb_Human [1] | fp_Human [2, 7] | in vivo CL_(L/hr/kg)_Human [3, 8] | in vivo Vd_(L/kg)_Human [4, 9] | fp_Human [2]
1 | Nc1nc(NC2CC2)c2ncn([C@H]3C=C[C@@H](CO)C3)c2n1 [Abacavir] | 1.03 | 0.500 | 0.780 L/h/kg | 0.840 L/kg |  |  |  |  |  |  | 
2 | NCC[C@H](O)C(=O)N[C@@H]1C[C@H](N)[C@@H](O[C@H]2O[C@H](CN)[C@@H](O)[C@H](O)[C@H]2O)[C@H](O)[C@H]1O[C@H]1O[C@H](CO)[C@@H](O)[C@H](N)[C@H]1O [Amikacin] | 0.97 | 0.880 | 0.066 L/h/kg | 0.160 L/kg |  |  |  |  |  |  | 
3 | COC(=O)[C@H]1[C@@H](OC(=O)c2ccccc2)C[C@@H]2CC[C@H]1N2C [Cocaine] |  | 0.120 | 1.920 L/h/kg |  | 1.00 | 2.000 L/kg |  |  |  |  | 
4 | CC(=O)O[C@@]12CO[C@@H]1C[C@H](O)[C@@]1(C)C(=O)[C@H](O)C3=C(C)[C@@H](OC(=O)[C@H](O)[C@@H](NC(=O)OC(C)(C)C)c4ccccc4)C[C@@](O)([C@@H](OC(=O)c4ccccc4)[C@H]21)C3(C)C [Docetaxel] | 0.55 | 0.040 | 1.098 L/h/kg | 2.100 L/kg |  |  |  |  |  |  | 
5 | Cc1ccc(C)c(OCCCC(C)(C)C(=O)O)c1 [Gemfibrozil] | 0.65 | 0.005 | 0.102 L/h/kg | 4.350 L/kg |  |  |  |  |  |  | 
6 | CN1C(=O)NC(=O)C(C)(C2=CCCCC2)C1=O (stereo not shown) [Hexobarbital] | 1.00 | 0.575 | 0.204 L/h/kg | 1.100 L/kg |  |  |  |  |  |  | 
7 | O=[N+]([O-])O[C@H]1CO[C@H]2[C@@H]1OC[C@H]2O[N+](=O)[O-] [Isosorbide Dinitrate] | 1.25 | 0.640 | 1.860 L/h/kg | 0.975 L/kg |  |  |  |  |  |  | 
8 | COC(=O)C1=C(C)NC(C)=C(C(=O)OC(C)C)C1c1cccc2nonc12 (stereo not shown) [Isradipine] | 0.55 | 0.040 | 1.560 L/h/kg | 1.500 L/kg |  |  |  |  |  |  | 
9 | C[C@@H]1CN([C@H]2CC[C@](C#N)(c3ccc(F)cc3)CC2)CC[C@]1(C(=O)O)c1ccccc1 [Levocabastine] | 1.20 | 0.452 | 0.026 L/h/kg | 1.170 L/kg |  |  |  |  |  |  | 
10 | O=C1Nc2ccc(Cl)cc2C(c2ccccc2Cl)=NC1O (stereo not shown) [Lorazepam] | 1.10 | 0.074 | 0.066 L/h/kg | 6.850 L/kg |  |  |  |  |  |  | 
11 | COCC(=O)O[C@]1(CCN(C)CCCc2nc3ccccc3[nH]2)CCc2cc(F)ccc2[C@@H]1C(C)C [Mibefradil] | 0.64 | 0.006 | 0.240 L/h/kg | 3.100 L/kg |  |  |  |  |  |  | 
12 | COc1c(C)c2c(c(O)c1C/C=C(\C)CCC(=O)O)C(=O)OC2 [Mycophenolic acid] | 0.69 | 0.009 | 0.199 L/h/kg | 16.600 L/kg |  |  |  |  |  |  | 
13 | C=C1CC[C@@]2(O)[C@H]3Cc4ccc(O)c5c4[C@@]2(CCN3CC2CC2)[C@H]1O5 [Nalmefene] | 1.11 | 0.650 | 0.900 L/h/kg | 8.200 L/kg |  |  |  |  |  |  | 
14 | OC(CNCC(O)C1CCc2cc(F)ccc2O1)C1CCc2cc(F)ccc2O1 (stereo not shown) [Nebivolol] | 1.20 | 0.020 | 0.840 L/h/kg | 11.000 L/kg |  |  |  |  |  |  | 
15 | O=C1c2cccc3c2[C@H](CCC3)CN1[C@@H]1CN2CCC1CC2 [Palonosetron] | 1.20 | 0.380 | 0.156 L/h/kg | 6.300 L/kg |  |  |  |  |  |  | 
16 | c1ccc(C2(N3CCCCC3)CCCCC2)cc1 [Phencyclidine] |  |  |  |  |  |  | 0.94 | 0.350 | 0.306 L/h/kg | 6.550 L/kg | 
17 | CC[C@H](C)C(=O)O[C@H]1C[C@H](O)C=C2C=C[C@H](C)[C@H](CC[C@@H](O)C[C@@H](O)CC(=O)O)[C@H]21 [Pravastatin] |  |  |  |  |  |  | 0.59 | 0.500 | 0.840 L/h/kg | 0.460 L/kg | 
18 | CCc1nc(N)nc(N)c1-c1ccc(Cl)cc1 [Pyrimethamine] |  |  |  |  |  |  | 0.98 | 0.095 | 0.003 L/h/kg | 0.430 L/kg | 
19 | CCOc1cc(CC(=O)N[C@@H](CC(C)C)c2ccccc2N2CCCCC2)ccc1C(=O)O [Repaglinide] |  |  |  |  |  |  | 0.55 | 0.015 | 0.513 L/h/kg | 0.350 L/kg | 
20 | Cc1nc2sccn2c(=O)c1CCN1CCC(=C(c2ccc(F)cc2)c2ccc(F)cc2)CC1 [Ritanserin] |  |  |  |  |  |  | 0.65 | 0.009 | 0.031 L/h/kg | 1.410 L/kg | 
21 | CCCN1CCCC[C@H]1C(=O)Nc1c(C)cccc1C [Ropivacaine] |  |  |  |  |  |  | 0.81 | 0.065 | 0.330 L/h/kg | 0.750 L/kg | 
22 | C#CCN(C)[C@H](C)Cc1ccccc1 [Selegiline] |  |  |  |  |  | 1.900 L/kg | 1.73 |  | 1.200 L/h/kg |  | 0.095
23 | Cc1cn([C@H]2C=C[C@@H](CO)O2)c(=O)[nH]c1=O [Stavudine] |  |  |  |  |  |  | 1.30 | 1.000 | 0.492 L/h/kg | 0.670 L/kg | 
24 | CCOc1ccccc1OCCN[C@H](C)Cc1ccc(OC)c(S(N)(=O)=O)c1 [Tamsulosin] |  |  |  |  |  |  | 0.55 | 0.010 | 0.037 L/h/kg | 0.210 L/kg | 
25 | CCCCCNC(=N)N/N=C/c1c[nH]c2ccc(OC)cc12 [Tegaserod] |  |  |  |  |  |  | 0.72 | 0.020 | 1.080 L/h/kg | 5.300 L/kg | 
26 | CCCc1nc2c(C)cc(-c3nc4ccccc4n3C)cc2n1Cc1ccc(-c2ccccc2C(=O)O)cc1 [Telmisartan] |  |  |  |  |  |  | 1.22 | 0.004 | 0.504 L/h/kg | 6.295 L/kg | 
27 | C[C@H](Cn1cnc2c(N)ncnc21)OCP(=O)(O)O [Tenofovir] |  |  |  |  |  |  | 1.05 | 0.930 | 0.186 L/h/kg | 0.830 L/kg | 
28 | COc1ccccc1Oc1c(NS(=O)(=O)c2ccc(C(C)C)cn2)nc(-c2ccnc(-c3nnn[nH]3)c2)nc1OCCO [Tezosentan] |  |  |  |  |  |  | 0.60 | 0.0085 | 0.486 L/h/kg | 0.280 L/kg | 
